Tests used:
[1] = Dissolution in aqueous solution buffered to pH 6.8 over time (FIG. 1, FIG. 2); assay type: physicochemical; settings: 100 mg sample with excipients in buffer pH 6.8, FIG. 1 curves
Protocol: Samples A and B are in the form of particles having an average diameter of about 150 microns. Samples C and D are in the form of particles having an average diameter of about 10 microns.
An aqueous solution buffered with a buffer to a pH of 6.8 is provided. A quantity of a mixture containing conventional pharmaceutically acceptable excipients is provided. In addition, a quantity of sodium dodecyl sulfate is provided.
A mixture of Sample A (100 mg) and excipients is formed and is placed in 900 ml of the aqueous solution.
A mixture of Sample C (100 mg) and excipients is formed and is placed in another 900 ml of the aqueous solution. Test samples of each of the aqueous solutions are taken at various times after each of the mixtures containing Compound III (Samples A and C) is placed in the aqueous solution. Each of these test samples is analyzed for Compound III concentration. Using these test results over a period of 240 minutes, relationships between the percentage of Sample A and Sample C dissolved and time are developed. These tests are run a total of 3 times (n=3).
Each of Samples B and D is tested in a substantially similar way. However, when testing Samples B and […], 1% based on weight of the mixture of Sample and excipient mixture, of sodium dodecyl sulfate is included in the mixture. Each of these tests is run a total of 3 times. […]

[2] = Contact angles by tilting plane method (sessile drop on tilted surface); assay type: physicochemical; settings: sessile drop of water or buffered aqueous medium (50 mM sodium phosphate, pH 6.8) on tilted surface of the substance
Excerpt: The tilting plane method of measuring contact angles involves slowly tilting a surface or plane of a substance the contact angle of which is to be determined until a sessile drop on the plane begins to move in the downhill direction. At that time the angle between the plane and the downhill tangent of the drop at the plane is the advancing contact angle, and the angle between the plane and the uphill tangent of the drop at the plane is the receding contact angle. A procedure for determining the contact angles of a therapeutic component is as follows. A small batch of Compound III weighing approximately 30 g is micronized in a ball mill for three days using 5-mm stainless steel balls. The resulting particles have an average diameter of 8 μm. A 200-mg sample of the micronized Compound III is compressed into a wafer 12 mm in diameter and 2 mm thick using a Carver press. The wafer is then glued on to a plastic board. Separately, a 10 milliliter aqueous solution is prepared containing 50 mM sodium phosphate buffer at pH 6.8. A drop of a blue food dye is added to the solution to aid visualization. A 40 μL drop of the blue aqueous solution is placed on top of the Compound III wafer on a plastic board resting at a horizontal position. The plastic board and the wafer are then slowly tilted from their horizontal position in front of a continuous shooting camera. The process stops after the blue aqueous drop has run down the wafer. The images that show the shapes of the liquid drop just prior to it starting to run down the wafer are analyzed and the contact angles measured. Alternatively, both the advancing and receding contact angles can be measured using a KSV instrument (model CAM 200) with a tilt stage. The instrument is fully computer controlled, and it captures the video image and performs full analysis of the advancing and receding contact angles.

[3] = Solubility in water at 25° C.; assay type: physicochemical; settings: for solubility: water; for solubility in water: unit given as mg
[4] = at doses 10-fold greater than the dose required to produce a 50% reduction in one or more symptoms; cited from earlier work

Compound: S=c1[nH]cc(CC2CC=CC2)[nH]1 [Compound III]
- rate of dissolution (comparison in words) [1]: relatively reduced rate of dissolution in water
- advancing contact angle [2]: 116 °
- receding contact angle [2]: 73 °
- solubility [3]: < 500 µg/mL

Compound: O=c1[nH]cc(CC2Cc3ccc(F)cc3C2)[nH]1 (centres unmarked) [Compound II]
- advancing contact angle [2]: greater than 90 °
- receding contact angle [2]: greater than 45 °
- solubility in water [3]: less than 0.5 mg

Compound: Cc1cccc([C@@H](C)c2c[nH]c(=S)[nH]2)c1C [Compound IV]
- advancing contact angle [2]: greater than 90 °
- receding contact angle [2]: greater than 45 °
- solubility in water [3]: less than 0.5 mg

Compound: O=C1c2ccccc2CCC1Cc1c[nH]c(=S)[nH]1 (centres unmarked) [Compound I]
- advancing contact angle [2]: greater than 90 °
- receding contact angle [2]: greater than 45 °
- solubility [3]: < 500 µg/mL

Compound: Cc1cccc([C@H](C)c2c[nH]cn2)c1C [dexmeditomidine]
- sedation [4]: completely sedating
